Values joined by “and” are separate entries in the source; they are usually repeats but may differ in a detail not shown here. Equal entries are not always repeated.
Assay: NHP health screening: serum chemistry
Assay type: in vivo, rhesus macaques (Macaca mulatta)
[1] = Mid-dosing bleed, treated animals, individual values
[2] = Post-dosing bleed, treated animals, individual values
[3] = Post-dosing bleed, Mean of treated F animals
[4] = Post-dosing bleed, individual treated animals
[5] = drug-treatment phase, returned to pre-study values by the final blood draw

In the case of `Cc1c(C(=O)N[C@H](C(=O)OCC2CCOCC2)C(C)C)ccc2c1B(O)OC2` [AN15368], the Glob [1] is reported as 3.3 G/Dl and 3.1 G/Dl and 2.8 G/Dl and 3.4 G/Dl and 2.9 G/Dl and 4.1 G/Dl and 3.8 G/Dl and 2.7 G/Dl and 2.5 G/Dl and 3 G/Dl and 3.5 G/Dl and 3.2 G/Dl, the Gluc [1] is reported as 69 Mg/Dl and 72 Mg/Dl and 58 Mg/Dl and 65 Mg/Dl and 66 Mg/Dl and 56 Mg/Dl and 73 Mg/Dl and 55 Mg/Dl and 63 Mg/Dl and 70 Mg/Dl and 48 Mg/Dl and 54 Mg/Dl and 79 Mg/Dl and 68 Mg/Dl and 53 Mg/Dl and the K [1] is reported as 3.9 Meq/L and 3.6 Meq/L and 3.3 Meq/L and 3.4 Meq/L and 3.5 Meq/L and 4.3 Meq/L and 3.8 Meq/L and 3.7 Meq/L. For the same compound, the Ldh [1] was 473 Iu/L and 139 Iu/L and 164 Iu/L and 148 Iu/L and 134 Iu/L and 214 Iu/L and 259 Iu/L and 376 Iu/L and 250 Iu/L and 266 Iu/L and 183 Iu/L and 238 Iu/L and 449 Iu/L and 154 Iu/L and 213 Iu/L and 475 Iu/L and 156 Iu/L and 198 Iu/L and 375 Iu/L, the Na [1] was 148 Meq/L and 150 Meq/L and 147 Meq/L and 144 Meq/L and 149 Meq/L and 146 Meq/L and 152 Meq/L and the Osmo [1] was 284 Mosm/Kg and 289 Mosm/Kg and 281 Mosm/Kg and 283 Mosm/Kg and 288 Mosm/Kg and 276 Mosm/Kg and 286 Mosm/Kg and 280 Mosm/Kg and 287 Mosm/Kg and 293 Mosm/Kg and 285 Mosm/Kg and 282 Mosm/Kg. For the same compound, the Phos [1] was 3.3 Mg/Dl and 3.8 Mg/Dl and 2 Mg/Dl and 2.4 Mg/Dl and 1 Mg/Dl and 2.2 Mg/Dl and 3.9 Mg/Dl and 2.5 Mg/Dl and 3.6 Mg/Dl and 3.1 Mg/Dl and 1.8 Mg/Dl and 4.8 Mg/Dl and 3.2 Mg/Dl, the Tbil [1] was 0.18 Mg/Dl and 0.17 Mg/Dl and 0.14 Mg/Dl and 0.2 Mg/Dl and 0.16 Mg/Dl and 0.19 Mg/Dl and 0.15 Mg/Dl and 0.13 Mg/Dl and the Tco2 [1] was 26 Meq/L and 28 Meq/L and 27 Meq/L and 25 Meq/L and 30 Meq/L and 24 Meq/L. For the same compound, the Tibc [1] was 376 µg/dL and 358 µg/dL and 410 µg/dL and 408 µg/dL and 348 µg/dL and 343 µg/dL and 359 µg/dL and 373 µg/dL and 383 µg/dL and 429 µg/dL and 377 µg/dL and 326 µg/dL and 340 µg/dL and 412 µg/dL and 337 µg/dL and 324 µg/dL and 325 µg/dL, the Tp [1] was 7.2 G/Dl and 6.7 G/Dl and 7.3 G/Dl and 7.5 G/Dl and 6.4 G/Dl and 7 G/Dl and 6.9 G/Dl and 6.5 G/Dl and 6.8 G/Dl and 6.6 G/Dl and the Trig [1] was 99 Mg/Dl and 148 Mg/Dl and 81 Mg/Dl and 85 Mg/Dl and 108 Mg/Dl and 72 Mg/Dl and 32 Mg/Dl and 141 Mg/Dl and 65 Mg/Dl and 82 Mg/Dl and 79 Mg/Dl and 102 Mg/Dl and 29 Mg/Dl and 76 Mg/Dl and 70 Mg/Dl and 62 Mg/Dl and 66 Mg/Dl and 95 Mg/Dl. For the same compound, the Agap [2] was 16 Meq/L and 14 Meq/L, the Alb [2] was 3.9 G/Dl and 3.7 G/Dl and the Alp [2] was 111 Iu/L and 100 Iu/L and 77 Iu/L. The Alt [2] was 52 Iu/L and 63 Iu/L and 59 Iu/L, the Ast [2] was 26 Iu/L and 34 Iu/L and 32 Iu/L and the Bun [2] was 17 Mg/Dl and 14 Mg/Dl. The Ca [2] was 9.5 Mg/Dl and 8.9 Mg/Dl, the Chol [2] was 187 mg/dL and 193 mg/dL and 141 mg/dL and the Ck [2] was 260 Iu/L and 337 Iu/L and 328 Iu/L. For the same compound, the Cl [2] was 107 Meq/L and 111 Meq/L, the Crea [2] was 0.58 Mg/Dl and 0.78 Mg/Dl and 0.68 Mg/Dl and the Fe [2] was 135 µg/dL and 99 µg/dL and 93 µg/dL. The Ggt [2] was 41 Iu/L and 54 Iu/L and 38 Iu/L, the Glob [2] was 3.3 G/Dl and 3.1 G/Dl and 2.9 G/Dl and the Gluc [2] was 63 Mg/Dl and 84 Mg/Dl and 51 Mg/Dl. The K [2] was 3.5 Meq/L and 3.4 Meq/L, the Ldh [2] was 217 Iu/L and 509 Iu/L and 322 Iu/L and the Na [2] was 147 Meq/L and 146 Meq/L and 148 Meq/L. The Osmo [2] was 283 Mosm/Kg and 281 Mosm/Kg and 284 Mosm/Kg, the Phos [2] was 4.6 Mg/Dl and 3.2 Mg/Dl and 2.1 Mg/Dl and the Tbil [2] was 0.19 Mg/Dl and 0.14 Mg/Dl and 0.12 Mg/Dl. For the same compound, the Tco2 [2] was 28 Meq/L and 26 Meq/L, the Tibc [2] was 357 µg/dL and 333 µg/dL and 388 µg/dL and the Tp [2] was 7.2 G/Dl and 6.8 G/Dl and 6.6 G/Dl. The Trig [2] was 64 Mg/Dl and 152 Mg/Dl and 111 Mg/Dl, the Agap [3] was 15.0556 Meq/L and the Alb [3] was 3.833 G/Dl. It also gave an Alp [3] of 103.5 Iu/L, an Alt [3] of 52.5556 Iu/L and an Ast [3] of 30.8889 Iu/L. For the same compound, the Bun [3] was 14.9444 Mg/Dl, the Ca [3] was 9.256 Mg/Dl and the Chol [3] was 143.944 mg/dL. For the same compound, the Ck [3] was 504.722 Iu/L, the Cl [3] was 109.722 Meq/L and the Crea [3] was 0.695 Mg/Dl. For the same compound, the Fe [3] was 115.333 µg/dL, the Ggt [3] was 47 Iu/L and the Glob [3] was 3.178 G/Dl. The Gluc [3] was 64.6667 Mg/Dl, the K [3] was 3.617 Meq/L and the Ldh [3] was 322.722 Iu/L. The Na [3] was 147.667 Meq/L, the Osmo [3] was 283.5 Mosm/Kg and the Phos [3] was 3.244 Mg/Dl. For the same compound, the Tbil [3] was 0.1383 Mg/Dl, the Tco2 [3] was 26.6111 Meq/L and the Tibc [3] was 363.444 µg/dL. The Tp [3] was 7.006 G/Dl, the Trig [3] was 77.7222 Mg/Dl and the Agap [4] was 14 Meq/L and 13 Meq/L and 17 Meq/L and 15 Meq/L and 19 Meq/L. The Alb [4] was 3.7 G/Dl and 3.8 G/Dl and 3.6 G/Dl and 3.3 G/Dl and 3.5 G/Dl and 4.1 G/Dl and 4.2 G/Dl and 4 G/Dl and 3.4 G/Dl and 3.9 G/Dl, the Alp [4] was 195 Iu/L and 100 Iu/L and 87 Iu/L and 122 Iu/L and 132 Iu/L and 143 Iu/L and 66 Iu/L and 83 Iu/L and 80 Iu/L and 105 Iu/L and 138 Iu/L and 102 Iu/L and 69 Iu/L and 79 Iu/L and the Alt [4] was 97 Iu/L and 39 Iu/L and 41 Iu/L and 87 Iu/L and 35 Iu/L and 91 Iu/L and 28 Iu/L and 31 Iu/L and 48 Iu/L and 71 Iu/L and 43 Iu/L and 46 Iu/L and 64 Iu/L. The Ast [4] was 40 Iu/L and 30 Iu/L and 31 Iu/L and 28 Iu/L and 27 Iu/L and 20 Iu/L and 42 Iu/L and 18 Iu/L and 26 Iu/L and 32 Iu/L and 45 Iu/L and 35 Iu/L, the Bun [4] was 12 Mg/Dl and 16 Mg/Dl and 17 Mg/Dl and 10 Mg/Dl and 18 Mg/Dl and 15 Mg/Dl and 13 Mg/Dl and 20 Mg/Dl and 11 Mg/Dl and 14 Mg/Dl and the Ca [4] was 9.1 Mg/Dl and 8.8 Mg/Dl and 9 Mg/Dl and 9.3 Mg/Dl and 9.8 Mg/Dl and 9.2 Mg/Dl and 9.6 Mg/Dl and 9.4 Mg/Dl and 9.5 Mg/Dl and 8.7 Mg/Dl. The Chol [4] was 121 mg/dL and 130 mg/dL and 133 mg/dL and 163 mg/dL and 147 mg/dL and 123 mg/dL and 150 mg/dL and 157 mg/dL and 141 mg/dL and 125 mg/dL and 129 mg/dL and 155 mg/dL and 160 mg/dL and 115 mg/dL and 127 mg/dL, the Ck [4] was 628 Iu/L and 657 Iu/L and 306 Iu/L and 255 Iu/L and 667 Iu/L and 292 Iu/L and 656 Iu/L and 625 Iu/L and 240 Iu/L and 479 Iu/L and 309 Iu/L and 783 Iu/L and 341 Iu/L and 1583 Iu/L and 339 Iu/L and 291 Iu/L and the Cl [4] was 109 Meq/L and 111 Meq/L and 108 Meq/L and 113 Meq/L and 110 Meq/L and 107 Meq/L. The Crea [4] was 0.68 Mg/Dl and 0.84 Mg/Dl and 0.9 Mg/Dl and 0.6 Mg/Dl and 0.64 Mg/Dl and 0.7 Mg/Dl and 0.75 Mg/Dl and 0.83 Mg/Dl and 0.62 Mg/Dl and 0.65 Mg/Dl and 0.78 Mg/Dl and 0.66 Mg/Dl and 0.53 Mg/Dl, the Fe [4] was 123 µg/dL and 100 µg/dL and 104 µg/dL and 102 µg/dL and 72 µg/dL and 129 µg/dL and 105 µg/dL and 154 µg/dL and 174 µg/dL and 67 µg/dL and 109 µg/dL and 144 µg/dL and 159 µg/dL and 136 µg/dL and the Ggt [4] was 47 Iu/L and 54 Iu/L and 63 Iu/L and 53 Iu/L and 51 Iu/L and 30 Iu/L and 52 Iu/L and 29 Iu/L and 39 Iu/L and 31 Iu/L and 89 Iu/L and 35 Iu/L and 42 Iu/L. For the same compound, the Glob [4] was 3.3 G/Dl and 2.9 G/Dl and 4 G/Dl and 3.5 G/Dl and 3 G/Dl and 3.2 G/Dl and 2.7 G/Dl and 2.8 G/Dl and 3.4 G/Dl, the Gluc [4] was 67 Mg/Dl and 57 Mg/Dl and 69 Mg/Dl and 65 Mg/Dl and 74 Mg/Dl and 62 Mg/Dl and 70 Mg/Dl and 48 Mg/Dl and 50 Mg/Dl and 58 Mg/Dl and 66 Mg/Dl and 75 Mg/Dl and 86 Mg/Dl and 44 Mg/Dl and 51 Mg/Dl and the K [4] was 3.6 Meq/L and 3.5 Meq/L and 3.7 Meq/L and 4.4 Meq/L and 3.4 Meq/L and 3.8 Meq/L. For the same compound, the Ldh [4] was 356 Iu/L and 197 Iu/L and 294 Iu/L and 209 Iu/L and 260 Iu/L and 107 Iu/L and 225 Iu/L and 392 Iu/L and 204 Iu/L and 300 Iu/L and 485 Iu/L and 796 Iu/L and 178 Iu/L and 365 Iu/L and 393 Iu/L and 524 Iu/L, the Na [4] was 147 Meq/L and 150 Meq/L and 148 Meq/L and 151 Meq/L and 146 Meq/L and 149 Meq/L and 145 Meq/L and the Osmo [4] was 281 Mosm/Kg and 288 Mosm/Kg and 283 Mosm/Kg and 282 Mosm/Kg and 284 Mosm/Kg and 291 Mosm/Kg and 280 Mosm/Kg and 286 Mosm/Kg and 279 Mosm/Kg and 287 Mosm/Kg. For the same compound, the Phos [4] was 2.4 Mg/Dl and 1.8 Mg/Dl and 1.9 Mg/Dl and 2.7 Mg/Dl and 3.6 Mg/Dl and 3.8 Mg/Dl and 4.7 Mg/Dl and 2.9 Mg/Dl and 3.7 Mg/Dl and 5.2 Mg/Dl and 2.1 Mg/Dl and 4.6 Mg/Dl and 4.3 Mg/Dl and 4 Mg/Dl, the Tbil [4] was 0.15 Mg/Dl and 0.13 Mg/Dl and 0.1 Mg/Dl and 0.14 Mg/Dl and 0.17 Mg/Dl and 0.12 Mg/Dl and 0.11 Mg/Dl and 0.16 Mg/Dl and the Tco2 [4] was 28 Meq/L and 30 Meq/L and 26 Meq/L and 25 Meq/L and 24 Meq/L and 29 Meq/L and 23 Meq/L. The Tibc [4] was 379 µg/dL and 363 µg/dL and 332 µg/dL and 367 µg/dL and 386 µg/dL and 356 µg/dL and 359 µg/dL and 419 µg/dL and 437 µg/dL and 354 µg/dL and 325 µg/dL and 353 µg/dL and 316 µg/dL and 309 µg/dL, the Tp [4] was 7 G/Dl and 6.7 G/Dl and 7.6 G/Dl and 6.8 G/Dl and 7.5 G/Dl and 7.1 G/Dl and 6.9 G/Dl and 7.2 G/Dl and the Trig [4] was 78 Mg/Dl and 58 Mg/Dl and 56 Mg/Dl and 74 Mg/Dl and 63 Mg/Dl and 59 Mg/Dl and 42 Mg/Dl and 61 Mg/Dl and 158 Mg/Dl and 51 Mg/Dl and 44 Mg/Dl and 113 Mg/Dl and 93 Mg/Dl and 100 Mg/Dl. The “alanine aminotransferase (ALT), mean value” [5] was “mildly elevated” and the “alkaline phosphatase (ALP), mean value” [5] was “mildly elevated”.

Reference: PMC9519446, “Discovery of an Orally Active Benzoxaborole Prodrug Effective in the Treatment of Chagas Disease in Non-human Primates” (Nature microbiology, 2022)
